Assay results: ChEMBL document CHEMBL4725243, “High-Throughput Screening for the Discovery of Enzyme Inhibitors” (J Med Chem, 2020)

Biological target: Immunoglobulin A1 protease autotransporter (Haemophilus influenzae (strain ATCC 51907 / DSM 11121 / KW20 / Rd), UniProt P44969)
Experiment: Inhibition of Haemophilus influenzae Rd IGA1 protease expressed in Escherichia coli BL21(DE3) preincubated for 1 hr followed by substrate addition and measured after 2 hrs by sandwich ELISA

Chain of Immunoglobulin A1 protease autotransporter (P44969 26-1014 limits assumed): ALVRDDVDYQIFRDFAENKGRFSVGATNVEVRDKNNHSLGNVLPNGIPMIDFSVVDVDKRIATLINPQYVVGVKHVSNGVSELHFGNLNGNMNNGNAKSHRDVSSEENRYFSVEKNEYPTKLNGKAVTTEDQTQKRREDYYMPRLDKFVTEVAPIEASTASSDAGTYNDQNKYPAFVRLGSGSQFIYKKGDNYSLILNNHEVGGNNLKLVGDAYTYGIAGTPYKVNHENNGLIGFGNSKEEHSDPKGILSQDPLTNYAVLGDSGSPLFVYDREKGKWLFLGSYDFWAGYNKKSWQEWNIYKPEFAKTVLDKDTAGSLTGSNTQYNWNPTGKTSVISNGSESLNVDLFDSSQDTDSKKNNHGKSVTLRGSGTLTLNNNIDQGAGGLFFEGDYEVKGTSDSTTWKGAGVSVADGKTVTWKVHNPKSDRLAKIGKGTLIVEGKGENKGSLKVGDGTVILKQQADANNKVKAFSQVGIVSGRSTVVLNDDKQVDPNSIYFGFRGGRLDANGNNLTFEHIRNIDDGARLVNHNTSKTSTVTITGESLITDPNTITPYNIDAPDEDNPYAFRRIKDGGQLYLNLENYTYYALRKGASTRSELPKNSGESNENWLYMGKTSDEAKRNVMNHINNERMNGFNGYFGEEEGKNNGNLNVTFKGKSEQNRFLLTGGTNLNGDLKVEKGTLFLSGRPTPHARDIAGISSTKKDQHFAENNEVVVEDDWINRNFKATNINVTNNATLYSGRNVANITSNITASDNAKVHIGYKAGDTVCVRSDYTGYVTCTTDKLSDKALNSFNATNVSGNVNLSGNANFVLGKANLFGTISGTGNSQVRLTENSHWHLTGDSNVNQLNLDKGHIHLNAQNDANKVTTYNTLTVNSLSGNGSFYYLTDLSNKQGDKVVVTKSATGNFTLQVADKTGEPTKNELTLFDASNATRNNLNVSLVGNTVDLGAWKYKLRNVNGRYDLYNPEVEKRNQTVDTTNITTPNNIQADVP

Structure (SMILES)	IC50 [µM]
O=C(Oc1nsnc1N1CCOCC1)c1ccccc1	5.9
O=C(Oc1nsnc1N1CCCCC1)C1CCOCC1	3.7
